Type in all cases: binding
Assay [1] has as its target PhACO1 (Petunia x hybrida, UniProt Q08506, R244A). The experiment in a line: isothermal titration calorimetry. (In general: ITC needs no label: the signal is the heat of the interaction.)
Assay [2] concerns the target PhACO1 (Petunia x hybrida, UniProt Q08506). The experiment in a line: isothermal titration calorimetry.
A further assay addresses AtACO2 (Arabidopsis thaliana, UniProt Q41931). Put plainly: intrinsic tryptophan fluorescence quenching. Conditions: 5 µM enzyme, Ni(II), 50 mM Tris pH 7.5, 28 °C; negative control (non-binder).

Structures are written as SMILES.

Sequence of PhACO1 (Petunia x hybrida, UniProt Q08506) (Q08506 whole entry): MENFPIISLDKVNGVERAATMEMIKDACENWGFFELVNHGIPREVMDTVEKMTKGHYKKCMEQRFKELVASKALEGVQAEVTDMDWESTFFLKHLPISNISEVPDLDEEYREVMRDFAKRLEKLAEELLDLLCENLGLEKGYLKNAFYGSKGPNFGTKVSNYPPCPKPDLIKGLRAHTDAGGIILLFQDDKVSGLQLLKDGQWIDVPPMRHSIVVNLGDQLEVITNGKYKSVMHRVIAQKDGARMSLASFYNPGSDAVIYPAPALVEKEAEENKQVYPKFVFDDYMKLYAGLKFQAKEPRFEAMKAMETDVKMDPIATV
Sequence of PhACO1 (Petunia x hybrida, UniProt Q08506, R244A) (Q08506 whole entry R244A): as the sequence (Q08506 whole entry) above, with R244A counted along it
Sequence of AtACO2 (Q41931 whole entry): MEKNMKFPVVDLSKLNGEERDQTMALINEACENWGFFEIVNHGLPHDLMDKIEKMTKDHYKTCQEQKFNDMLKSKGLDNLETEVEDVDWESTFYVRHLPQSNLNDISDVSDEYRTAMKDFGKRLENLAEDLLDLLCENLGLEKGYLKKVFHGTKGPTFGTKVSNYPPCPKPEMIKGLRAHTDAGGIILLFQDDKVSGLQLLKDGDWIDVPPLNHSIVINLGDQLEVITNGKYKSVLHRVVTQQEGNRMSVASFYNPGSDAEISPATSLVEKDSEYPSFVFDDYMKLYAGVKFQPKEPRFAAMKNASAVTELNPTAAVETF

Regarding `O=C(O)c1cnccn1` [POA], the Kd (in general, a measure of binding affinity in units of concentration) on PhACO1 [1] stood at 104 µM; at PhACO1 [2], 69.5 µM.

Turning to `O=C(O)c1ccccc1` [benzoic acid], the “intrinsic tryptophan fluorescence quenching” value at AtACO2 is given as “benzoic acid did not quench fluorescence”.

These data come from publication doi:10.64898/2025.12.04.692314v1 (biorxiv, 2025).
